Experimental data as given in US8106055B2, “Substituted amide compounds” (Gruenenthal GmbH, priority 2007, dated 2012).
Where two headings read alike, the source gives them in different places.

Columns and labels:
[1] = target: T1, human μ opiate receptor (Homo sapiens, UniProt P35372); test: Affinity for the human μ opiate receptor ([3H]-naloxone displacement, CHO-K1 receptor membrane preparation, SPA); type: binding
T1 construct: purchased PerkinElmer Life Sciences, Zaventem, Belgium RB-HOM; host or cells: CHO-K1 cells (membrane preparation)
How it was run: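 SPA, CHO-K1 hμ membranes; 1 nmol/l [3H]-naloxone; Tris-HCl 50 mmol/l + 0.06% BSA; 90 min RT; NSB with 100 μmol/l naloxone; β-counting. Readout: % inhibition of specific binding at 1 μM test compound.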

[2] = target: T2, human bradykinin 1 receptor (B1R) (Homo sapiens, UniProt P46663); test: Functional investigation on the human bradykinin 1 receptor (B1R), Ca2+ FLIPR assay in CHO K1 hB1R cells; type: cell-based; conditions: test substance 10 μM, Ca2+ FLIPR, CHO K1 hB1R cells; for inhibition at 10 µM: CHO-K1, B1R antagonism human, read-out: B1R Ant. h [10 μM] % Inhibition
T2 construct: expressed in transfected cells; host or cells: CHO K1 cells
T2 sequence (P46663 1-353): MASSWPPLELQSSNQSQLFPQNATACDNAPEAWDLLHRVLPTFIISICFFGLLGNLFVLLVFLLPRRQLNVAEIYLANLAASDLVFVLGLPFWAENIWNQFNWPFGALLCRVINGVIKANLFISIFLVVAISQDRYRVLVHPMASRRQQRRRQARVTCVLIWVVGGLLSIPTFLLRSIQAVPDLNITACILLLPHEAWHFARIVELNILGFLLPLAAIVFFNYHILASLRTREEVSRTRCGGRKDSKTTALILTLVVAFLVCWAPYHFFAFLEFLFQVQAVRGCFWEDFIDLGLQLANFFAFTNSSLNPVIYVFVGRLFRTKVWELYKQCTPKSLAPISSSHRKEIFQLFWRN
How it was run: (§1)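 Peak Ca2+-dependent fluorescence in B1R-transfected CHO K1 cells measures antagonism of an EC80 agonist challenge given 10-20 min after compound. Agonist is Lys-Des-Arg9-bradykinin for human, Des-Arg9-bradykinin for rat receptor.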

[3] = target: T3, serotonin (5-HT) reuptake (Rattus norvegicus, UniProt P31652); test: Inhibition of serotonin (5HT) reuptake in synaptosomes from rat brain; type: biochemical; conditions: test concentration of 10 μM; for inhibition at 10 µM: read-out: 5-HT (inhibition of reuptake of serotonin, % inhibition)
T3 construct: synaptosomes are freshly isolated from areas of the rat brain; from tissue; host or cells: rat brain synaptosomes (P2 fraction)
Method: Binding data of the compounds on the μ opioid receptor and data on the inhibition of reuptake of serotonin (5-HT) are given in Table 1. The data for the μ receptor were measured at a test concentration of 1 μM, and those for the serotonin reuptake at 10 μM. The values are stated in % inhibition.
Inhibition of Serotonin (5HT) Reuptake
In order to be able to carry out these in vitro studies, synaptosomes are freshly isolated from areas of the rat brain. In each case a so-called “P2” fraction prepared in accordance with the instructions of Gray and Whittaker (E. G. Gray and V. P. Whittaker (1962) J. Anat. 76, 79-88) is prepared. For the NA uptake, these vesicular particles are isolated from the hypothalamus of male rat brains.
A detailed description of the method can be found in the literature (M. Ch. Frink, H.-H. Hennies, W. Englberger, M. Haurand and B. Wilffert (1996) Arzneim.-Forsch./Drug Res. 46 (III), 11, 1029-1036).

[4] = target: T4, bradykinin 1 receptor (B1R) of the rat (Rattus norvegicus, UniProt P97583); test: Functional investigation on the rat bradykinin 1 receptor (B1R), Ca2+ FLIPR assay in CHO K1 rB1R cells; type: cell-based; conditions: CHO-K1, B1R antagonism rat; test substance 10 μM; Ca2+ FLIPR, CHO K1 rB1R cells; read-out: B1R Ant. r [10 μM] % Inhibition
T4 construct: expressed in transfected cells; host or cells: CHO K1 cells
T4 sequence (P97583 1-337): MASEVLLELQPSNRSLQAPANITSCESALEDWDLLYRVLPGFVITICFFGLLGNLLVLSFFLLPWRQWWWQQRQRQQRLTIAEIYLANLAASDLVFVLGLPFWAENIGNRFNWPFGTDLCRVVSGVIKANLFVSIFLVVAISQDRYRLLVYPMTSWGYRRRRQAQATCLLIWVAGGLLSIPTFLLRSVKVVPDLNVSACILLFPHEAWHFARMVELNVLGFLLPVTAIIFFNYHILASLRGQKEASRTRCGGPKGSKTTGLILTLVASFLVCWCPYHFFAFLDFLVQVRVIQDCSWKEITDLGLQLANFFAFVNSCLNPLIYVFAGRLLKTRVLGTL
How it was run: as §1

[5] = test concentration of 1 μM, 1 µM
[6] = 1.5 h, Table 3, to be read in the same way as Table 1, test concentration 1 μM, read-out: μ

T1 sequence (P35372 whole entry): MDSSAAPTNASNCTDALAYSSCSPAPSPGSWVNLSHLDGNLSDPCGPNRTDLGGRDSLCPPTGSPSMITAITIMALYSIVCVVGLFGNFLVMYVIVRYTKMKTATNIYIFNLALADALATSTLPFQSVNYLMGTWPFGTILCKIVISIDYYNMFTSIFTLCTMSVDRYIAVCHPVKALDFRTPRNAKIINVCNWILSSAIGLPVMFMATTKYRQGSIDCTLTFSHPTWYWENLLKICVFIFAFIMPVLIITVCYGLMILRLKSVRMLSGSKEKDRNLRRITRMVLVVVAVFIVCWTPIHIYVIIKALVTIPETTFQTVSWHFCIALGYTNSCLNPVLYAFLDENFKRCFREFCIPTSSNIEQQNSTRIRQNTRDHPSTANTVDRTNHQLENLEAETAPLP
T3 sequence (P31652 whole entry): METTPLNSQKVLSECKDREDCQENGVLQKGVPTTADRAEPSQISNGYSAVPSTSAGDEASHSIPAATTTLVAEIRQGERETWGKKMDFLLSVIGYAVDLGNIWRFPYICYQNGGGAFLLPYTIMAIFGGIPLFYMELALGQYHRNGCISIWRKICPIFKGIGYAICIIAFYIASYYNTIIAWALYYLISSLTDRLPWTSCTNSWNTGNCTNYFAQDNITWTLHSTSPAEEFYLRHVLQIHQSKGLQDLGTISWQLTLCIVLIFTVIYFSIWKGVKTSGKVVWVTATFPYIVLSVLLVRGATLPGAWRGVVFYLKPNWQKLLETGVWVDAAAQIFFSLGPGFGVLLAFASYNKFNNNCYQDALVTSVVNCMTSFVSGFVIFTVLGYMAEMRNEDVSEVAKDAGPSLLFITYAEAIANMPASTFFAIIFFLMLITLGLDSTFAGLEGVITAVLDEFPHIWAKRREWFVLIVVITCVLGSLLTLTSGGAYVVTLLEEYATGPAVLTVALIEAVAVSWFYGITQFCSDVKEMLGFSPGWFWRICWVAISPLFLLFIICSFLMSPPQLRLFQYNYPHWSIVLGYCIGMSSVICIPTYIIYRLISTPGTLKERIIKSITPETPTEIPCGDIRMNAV

Row | SMILES | μ (binding on the μ opioid receptor, % inhibition) ([1]; test concentration of 1 μM) [%] | 5-HT (inhibition of reuptake of serotonin, % inhibition) [3] [%] | further results
1 | Cc1cc(C)c(S(=O)(=O)N(C)CCOCC(=O)NCCC2CCC(C(c3cccs3)N(C)C)CC2)c(C)c1 (stereo not shown) [Example 385] | 59 | 93 | B1R Ant. h [10 μM] % Inhibition ([2]; B1R antagonism human): 15%
2 | CN(C)C(c1ccccc1)C1CCC(NC(=O)COCc2ccccc2)CC1 (stereo not shown) [Example 245] | 80 | 59 | –
3 | CC(Oc1ccccc1)C(=O)NCC1CCC(C(c2ccccc2)N(C)C)CC1 (stereo not shown) [Example 50, N-((4-((dimethylamino)(phenyl)methyl)cyclohexyl)methyl)-2-phenoxypropanamide] | – | – | inhibition at 10 µM [3]: 65%
4 | CC(Oc1ccccc1)C(=O)NCC1CCC(C(c2ccc(F)cc2)N(C)C)CC1 (stereo not shown) [Example 236] | 81 | 63 | –
5 | CC(=O)OC(C(=O)NCC1CCC(C(c2ccc(Cl)cc2)N(C)C)CC1)c1ccccc1 (stereo not shown) [Example 360] | 66 | 15 | –
6 | CC(Oc1ccccc1)C(=O)NCC1CCC(C(c2cccc(F)c2)N(C)C)CC1 (stereo not shown) [Example 79, N-((4-((dimethylamino)(3-fluorophenyl)methyl)cyclohexyl)methyl)-2-phenoxypropanamide] | – | – | 5-HT (inhibition of reuptake of serotonin, % inhibition) ([3]; 10 µM): 64%
7 | CN(C)C(c1ccccc1)C1CCC(NC(=O)COc2ccc(Cl)cc2)CC1 (stereo not shown) [Example 316] | 72 | 59 | –
8 | CN(C)C(CCc1ccccc1)C1CCC(NC(=O)COCc2ccccc2)CC1 (stereo not shown) [Example 582] | 9 | 75 | –
9 | CC(Oc1ccccc1)C(=O)NCC1CCC(C(c2cccc(F)c2)N(C)C)CC1 (stereo not shown) [Example 122, N-((4-((dimethylamino)(3-fluorophenyl)methyl)cyclohexyl)methyl)-2-phenoxypropanamide] | – | – | 5-HT (inhibition of reuptake of serotonin, % inhibition) ([3]; 10 µM): 57%
10 | CC(Oc1ccccc1)C(=O)NC1CCC(C(CCc2ccccc2)N(C)C)CC1 (stereo not shown) [Example 545] | – | – | μ (binding on the μ opioid receptor, % inhibition) [1, 5]: 30%; 5-HT (inhibition of reuptake of serotonin, % inhibition) ([3]; 10 µM): 52%
11 | CC(Oc1ccccc1)C(=O)NC1CCC(C(c2ccccc2)N(C)C)CC1 (stereo not shown) [Example 181, N-(4-((dimethylamino)(phenyl)methyl)cyclohexyl)-2-phenoxypropanamide] | – | – | inhibition at 10 µM [3]: 46%
12 | CC(Oc1ccccc1)C(=O)NCCC1CCC(C(c2ccc(F)cc2)N(C)C)CC1 (stereo not shown) [Example 455] | 51 | 74 | –
13 | CN(C)C(c1ccc(F)cc1)C1CCC(NC(=O)COCc2ccccc2)CC1 (stereo not shown) [Example 529] | 37 | 59 | –
14 | CN(C)C(c1ccc(Cl)cc1)C1CCC(CCNC(=O)COCc2ccccc2)CC1 (stereo not shown) [Example 482] | 47 | 55 | –
15 | CN(C)C(c1cccc(F)c1)C1CCC(NC(=O)COCc2ccccc2)CC1 (stereo not shown) [Example 353] | 67 | 60 | –
16 | CC(Oc1ccccc1)C(=O)NCC1CCC(C(c2ccc(Cl)cc2)N(C)C)CC1 (single isomer, unassigned) [Example 237] | 81 | – | 5-HT (inhibition of reuptake of serotonin, % inhibition) ([3]; 10 µM): 52%

Row | SMILES | μ (binding on the μ opioid receptor, % inhibition) ([1]; test concentration of 1 μM) [%] | 5-HT (inhibition of reuptake of serotonin, % inhibition) [3] [%] | further results
17 | CC(Oc1ccccc1)C(=O)NCCC1CCC(C(c2cccs2)N(C)C)CC1 (stereo not shown) [Example 315] | 72 | 61 | –
18 | CN(C)C(CCc1ccccc1)C1CCC(NC(=O)COc2ccc(Cl)cc2)CC1 (stereo not shown) [Example 564] | 24 | 47 | –
19 | COC(=O)C(=O)NCCC1CCC(C(c2ccccc2)N(C)C)CC1 (stereo not shown) [Example 579] | 11 | 59 | –
20 | CC(Oc1ccccc1)C(=O)NCC1CCC(C(c2ccc(Cl)cc2)N(C)C)CC1 (single isomer, unassigned) [Example 238] | 81 | – | 5-HT (inhibition of reuptake of serotonin, % inhibition) ([3]; 10 µM): 38%
21 | CC(Oc1ccccc1)C(=O)NC1CCC(C(CCc2ccccc2)N(C)C)CC1 (stereo not shown) [Example 577] | – | – | μ (binding on the μ opioid receptor, % inhibition) [1, 5]: 14%; 5-HT (inhibition of reuptake of serotonin, % inhibition) ([3]; 10 µM): 16%
22 | CC(Oc1ccccc1)C(=O)NCC1CCC(C(c2cccs2)N(C)C)CC1 (stereo not shown) [Example 2, N-((4-((dimethylamino)(thiophen-2-yl)methyl)cyclohexyl)methyl)-2-phenoxypropanamide] | – | – | inhibition at 10 µM [3]: 69%
23 | CC(Oc1ccccc1)C(=O)NCC1CCC(C(CCc2ccccc2)N(C)C)CC1 (stereo not shown) [Example 495] | 44 | 48 | –
24 | CCOC(=O)C(=O)NCC1CCC(C(CCc2ccccc2)N(C)C)CC1 (stereo not shown) [Example 421] | 57 | 26 | –
25 | CC(Oc1ccccc1)C(=O)NC1CCC(C(c2cccc(F)c2)N(C)C)CC1 (stereo not shown) [Example 153, N-(4-((dimethylamino)(3-fluorophenyl)methyl)cyclohexyl)-2-phenoxypropanamide] | – | – | inhibition at 10 µM [3]: 27%
26 | CC(Oc1ccccc1)C(=O)NCC1CCC(C(c2cccc(F)c2)N(C)C)CC1 (stereo not shown) [Example 108, N-((4-((dimethylamino)(3-fluorophenyl)methyl)cyclohexyl)methyl)-2-phenoxypropanamide] | – | – | inhibition at 1 µM ([1]; test concentration of 1 μM, read-out: μ (binding on the μ opioid receptor, % inhibition)): 91%; inhibition at 10 µM [3]: 63%
27 | CN(C)C(c1ccccc1)C1CCC(CCNC(=O)COCc2ccccc2)CC1 (stereo not shown) [Example 134, 2-(benzyloxy)-N-(2-(4-((dimethylamino)(phenyl)-methyl)cyclohexyl)ethyl)acetamide] | – | – | inhibition at 10 µM [3]: 67%
28 | CN(C)C(c1cccc(F)c1)C1CCC(NC(=O)COc2ccc(Cl)cc2)CC1 (stereo not shown) [Example 505] | 42 | 59 | –
29 | CC(Oc1ccccc1)C(=O)NCCC1CCC(C(c2ccccc2)N(C)C)CC1 (stereo not shown) [Example 270] | 77 | 73 | –
30 | COc1cc(C)c(S(=O)(=O)N2CCCC(OCC(=O)NCC3CCC(C(CCc4ccccc4)N4CCCC4)CC3)C2)c(C)c1 (stereo not shown) [Example 731, 2-(1-(4-methoxy-2,6-dimethylphenylsulfonyl)piperidin-3-yloxy)-N-((4-(3-phenyl-1-(pyrrolidin-1-yl)propyl)cyclohexyl)methyl)acetamide] | – | – | inhibition at 1 µM [1, 6]: 49%; inhibition at 10 µM [4]: 80%; inhibition at 10 µM [2]: 101%
31 | CN(CCOCC(=O)NCC1CCC(C(c2ccccc2)N2CCCC2)CC1)S(=O)(=O)c1ccc(Cl)cc1Cl (stereo not shown) [Example 641, 2-(2-(2,4-dichloro-N-methylphenylsulfonamido)ethoxy)-N-((4-(phenyl(pyrrolidin-1-yl)methyl)cyclohexyl)methyl)acetamide] | – | – | inhibition at 1 µM [1, 6]: 66%; inhibition at 10 µM [4]: 45%; inhibition at 10 µM [2]: 96%
